For one data set, the system named is HeLa. Nature of the data set: Antiproliferative activity against human HeLa cells after 72 hrs by MTT assay. It counts as functional, cell-based.
Data set [1] deals with T1, DNA topoisomerase 1 (Homo sapiens) (UniProt P11387).
T1 sequence (whole entry): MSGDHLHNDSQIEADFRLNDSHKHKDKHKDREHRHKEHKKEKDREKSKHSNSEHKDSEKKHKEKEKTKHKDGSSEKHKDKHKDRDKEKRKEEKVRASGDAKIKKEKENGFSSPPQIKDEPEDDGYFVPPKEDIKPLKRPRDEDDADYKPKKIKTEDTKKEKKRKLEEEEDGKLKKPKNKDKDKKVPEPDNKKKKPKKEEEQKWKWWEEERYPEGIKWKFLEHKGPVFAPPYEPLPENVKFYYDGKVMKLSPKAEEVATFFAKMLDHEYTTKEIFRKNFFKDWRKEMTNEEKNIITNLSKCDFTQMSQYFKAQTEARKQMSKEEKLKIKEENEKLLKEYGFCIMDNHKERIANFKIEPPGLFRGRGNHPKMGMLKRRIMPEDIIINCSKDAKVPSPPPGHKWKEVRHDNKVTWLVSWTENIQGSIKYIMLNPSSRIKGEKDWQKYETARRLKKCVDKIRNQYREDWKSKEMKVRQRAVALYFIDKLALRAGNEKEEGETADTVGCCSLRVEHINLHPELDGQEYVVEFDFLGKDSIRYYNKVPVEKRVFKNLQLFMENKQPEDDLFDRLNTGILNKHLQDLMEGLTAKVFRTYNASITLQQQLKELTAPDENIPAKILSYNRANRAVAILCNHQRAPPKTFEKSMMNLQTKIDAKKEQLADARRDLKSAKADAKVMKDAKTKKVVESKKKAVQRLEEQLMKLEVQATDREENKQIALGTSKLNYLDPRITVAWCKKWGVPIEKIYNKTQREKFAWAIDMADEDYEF
Nature of the data set: Inhibition of human DNA topoisomerase 1 assessed as decrease in relaxation of pBR322 at 20 uM after 30 to 40 mins by agarose gel electrophoresis.

For data set [2], the system named is T-24. Nature of the data set: Induction of apoptosis n human T24 cells assessed as PARP cleavage at 0.5 to 1 uM after 18 hrs by Western blot method. In kind it is functional, cell-based. A general note: In western blotting, separated proteins are transferred to a membrane and probed.
The test system of data set [3] is T-24. Briefly: Induction of reactive oxygen species generation in human T24 cells at 1 uM after 30 mins by H2DCFDA dye-based flow cytometric method. It counts as functional, cell-based. Background: Flow cytometry measures light scatter and fluorescence of single cells or particles in a stream.
The test system of data set [4] is Calf thymus DNA. Briefly: Binding affinity to calf thymus double stranded DNA at 10 uM by fluorescence spectrophotometer. It counts as nucleic-acid assay. Particulars: Bos taurus.
Data set [5] has as its system Calf thymus DNA. Nature of the data set: Binding affinity to calf thymus DNA. It counts as nucleic-acid assay. As to conditions: Bos taurus.
Data set [6] concerns T-24. Nature of the data set: Upregulation of total p53 levels in human T24 cells at 0.5 to 1 uM after 18 hrs by Western blot method. Particulars: t-24, 18 h. In kind it is cell-based.
The subject of data set [7] is HCT-116. Briefly: Antiproliferative activity against p53 deficient human HCT116 cells after 72 hrs by MTT assay. In kind it is functional, cell-based. Particulars: HCT-116, 72 h.
The test system of data set [8] is T-24. Briefly: Induction of apoptosis n human T24 cells assessed as upregulation of Bak levels at 0.5 to 1 uM after 18 hrs by Western blot method. In kind it is functional, cell-based.
A further data set deals with CCRF-CEM. Briefly: Antiproliferative activity against human CEM cells after 72 hrs by MTT assay. It counts as functional, cell-based.
In another data set the test system is L1210. Nature of the data set: Antiproliferative activity against mouse L1210 cells after 72 hrs by MTT assay. As to conditions: L1210, 72 h. In kind it is functional, cell-based. For orientation: Tetrazolium assays rely on reduction of a dye to a coloured formazan, in cell work by metabolically active cells.
Data set [9] concerns HCT-116. Briefly: Antiproliferative activity against human HCT116 cells after 72 hrs by MTT assay. In kind it is functional, cell-based. As to conditions: HCT-116, 72 h.
The test system of a further data set is K562. Briefly: Antiproliferative activity against human K562 cells after 72 hrs by MTT assay. In kind it is functional, cell-based. As to conditions: K562, 72 h.
Data set [10] is described as follows: Antiproliferative activity against human K562/4 cells after 72 hrs by MTT assay. In kind it is functional, cell-based. Particulars: K562/4, 72 h.
Data set [11] concerns T-24. Nature of the data set: Induction of apoptosis n human T24 cells at 1 uM after 24 hrs by annexin V-FITC/propidium iodide staining-based flow cytometric method. It counts as functional, cell-based.
Data set [12] concerns T-24. Briefly: Induction of apoptosis n human T24 cells assessed as downregulation of Bcl-2 levels at 0.5 to 1 uM after 18 hrs by Western blot method. It counts as functional, cell-based.
Data set [13] relates to T-24. Briefly: Growth inhibition of human T24 cells after 72 hrs by cell impedance method. Particulars: T-24, 72 h. It counts as functional, cell-based.
A further data set deals with HMEC-1. Nature of the data set: Antiproliferative activity against HMEC1 cells after 72 hrs by MTT assay. It counts as cell-based. As to conditions: Homo sapiens, HMEC-1, 72 h.

The structures appear in SMILES notation. Calls of active or inactive are those of the source. No cut-off for these calls is given here.

For `Cc1cc(O)c2c3c4c(cc(O)c13)C(C)(C)C(=O)c1c(O)cc(O)c(c1-4)C2=O` [HELIOMYCIN], the concentration for half-maximal inhibition (IC50) was 0.1 µM with HeLa; 0.1 µM in the data set on HCT-116 [7]; 0.5 µM in the data set with CCRF-CEM; 0.7 µM with L1210; 0.3 µM in the data set on HCT-116 [9]; 0.3 µM with K562. For the same molecule, the concentration for half-maximal inhibition (IC50) was 0.4 µM in [10], 26 µM in the data set on T-24 [13] and 0.5 µM in the data set on HMEC-1. Moreover, the inhibition entry in [1] was “inactive”. Also, the outcome in the data set on T-24 [2], with T-24 [3], with Calf thymus DNA [4], in the data set on T-24 [8], with T-24 [11] and in the data set on T-24 [12] was inactive. Further, the Kb with Calf thymus DNA [5] stood at 1.1 ×10⁴ /M. In the data set with T-24 [6], the Activity entry was “Toxic”.

In general, IC50 refers to the concentration at which inhibition is half-maximal.

These data come from ChEMBL document CHEMBL4138182, “Aminomethylation of heliomycin: Preparation and anticancer characterization of the first series of semi-synthetic derivatives” (Eur J Med Chem, 2018).
